In patent publication US4489003A, “Imidazobenzodiazepines” (Hoffmann-La Roche Inc., priority 1982, dated 1984):

What was measured:
[1] = biological target: central benzodiazepine receptors; assay: inhibition of the binding of tritiated diazepam at the specific benzodiazepine receptors in the cerebral cortex; conditions: [3H]diazepam
Experimental: The affinity of compounds of general formula I to the central benzodiazepine receptors was determined according to the method described in Life Science 20, 2101-2110 (1977) and Science 198, 849-851 (1977). According to this method, the inhibition of the binding of tritiated diazepam at the specific benzodiazepine receptors in the cerebral cortex by the respective test substances is ascertained. The IC50 ("50% inhibiting concentration") is that concentration of the respective test substance which brings about a 50 percent inhibition of the specific binding of the tritiated diazepam at the specific benzodiazepine receptors in the cerebral cortex.

[2] = system: spasmodic seizures caused by pentetrazole; assay: antipentetrazole test; format: in vivo; conditions: Rattus norvegicus, po, 0.5 h; female rats 60-80 g, p.o. 30 minutes before 120 mg/kg pentetrazole i.p.
Experimental: The central properties of the compounds of formula I provided by the present invention can be determinded, for example, in the antipentetrazole test which is described hereinafter and which is generally recognized for recording anticonvulsant properties.
In this animal experiment the compound under investigation is administered orally to female rats weighing 60-80 g and 30 minutes later there are administered intraperitoneally 120 mg/kg of pentetrazole which causes emprosthotonus and tonic stretchings of the fore and/or hind limbs in unprotected experimental animals 1 to 4 minutes after the injection. Ten experimental animals are used per dosage of test substance. After counting the protected experimental animals, the ED50 is determined according to the Probit method. The ED50 is that dosage which protects 50% of the experimental animals from the spasmodic seizures caused by pentetrazole.

[3] = system: sedative, muscle relaxant and motor coordination-disturbing activity caused by high dosages of diazepam; assay: traction test (antagonism of diazepam); format: in vivo; conditions: Mus musculus, po, 0.25 h; mice, p.o. 15 minutes after 3 mg/kg diazepam i.p.
Experimental: In this animal experiment the ability of the test substances to antagonise the sedative, muscle relaxant and motor coordination-disturbing activity caused by high dosages of diazepam is determined.
Mice weighing 17-29 g are lifted by the tail and are allowed to grip a taut horizontal wire (length 15 cm, height 20 cm, diameter 1 mm) with the front paws, whereupon the experimental animals are released. Untreated control animals are capable of gripping the wire with both front paws and at least one hind paw within 3 seconds. If 3 mg/kg of diazepam are administered intraperitoneally to the experimental animals, then their aforementioned capabilities disappear, i.e. they are no longer capable of gripping the taut horizontal wire within 3 seconds with both front paws and at least one hind paw. 15 minutes after the administration of diazepam the compound under investigation is administered orally to the experimental animals, whereupon there are counted those animals which have regained the aforementioned capabilities. The ED50 is that dosage which in 50% of the experimental animals antagonizes the action of diazepam, i.e. counteracts this.

[4] = acute toxicity, single oral administration; conditions: rat, in vivo; single oral administration to rats
From the text: The results obtained with representative compounds of formula I in the experiments described earlier are compiled in the following Table. The Table also contains data concerning the acute toxcity of some of these compounds (LD50 in mg/kg following single oral administration to rats).

| Compound | IC50 [1] | ED50 [2] | ED50 [3] | LD50 [4] |
| --- | --- | --- | --- | --- |
| O=C(OCC1CC1)c1ncn2c1[C@@H]1CCCN1C(=O)c1c(Cl)cccc1-2 | 2300 nM | 0.66 mg/kg | 0.8 mg/kg | 1000 to 2000 mg/kg |
| O=C(OCC1CC1)c1ncn2c1[C@@H]1CCN1C(=O)c1c(Cl)cccc1-2 | 1100 nM | 0.27 mg/kg | < 30 mg/kg |  |
| O=C(OCc1ccccc1)c1ncn2c1[C@@H]1CCCN1C(=O)c1c(Cl)cccc1-2 | 1500 nM | > 100 mg/kg | 0.09 mg/kg |  |
| O=C(OC1CCCCC1)c1ncn2c1[C@@H]1CCCN1C(=O)c1c(Br)cccc1-2 | 2700 nM | 7 mg/kg | < 30 mg/kg | > 5000 mg/kg |
| O=C(OCC1CC1)c1ncn2c1[C@@H]1CCCN1C(=O)c1c(Br)cccc1-2 | 2600 nM | 0.63 mg/kg | < 30 mg/kg | 625 to 1250 mg/kg |
| O=C(OC1CCCCC1)c1ncn2c1[C@@H]1CCCN1C(=O)c1c(I)cccc1-2 | 2100 nM | 2.2 mg/kg | > 30 mg/kg | > 5000 mg/kg |
| C#CCOC(=O)c1ncn2c1[C@@H]1CCCN1C(=O)c1c(Cl)cccc1-2 [Example 27, 2-propynyl (S)-8-chloro-11,12,13,13a-tetrahydro-9-oxo-9H-imidazo[1,5-a]pyrrolo[2,1-c][1,4]benzodiazepine-1-carboxylate] | 2100 nM | > 100 mg/kg | 0.005 mg/kg |  |
